Assay results as given in publication PMC9266368, “Synthesis and Biological Evaluation of Small Molecules as Potential Anticancer Multitarget Agents” (International Journal of Molecular Sciences, 2022).
Where “and” joins values, the source holds several entries; their conditions need not be identical. Equal values may be shown once.

Assays:
[1] = tested on: A-549 (lung adenocarcinoma); test: MTT cell viability assay, A-549; assay type: cell-based; conditions: Homo sapiens, A549, 48 h, 2 days incubation, average ±SD of three experiments
Protocol: The effects of triazole derivatives 1–26 on the cell viability were determined by MTT assay, and the IC50 values were determined toward the human tumor cell lines HT-29 (colon adenocarcinoma), A-549 (lung adenocarcinoma), and MCF-7 (breast adenocarcinoma), as well as toward the non-tumor cell line HEK-293 (human embryonic kidney cells).
In 96-well plates, 3 × 10^3 (A549 and HEK-293) or 5 × 10^3 (HT-29, MCF-7) cells per well were incubated with serial dilutions of the tested compounds in a total volume of 100 μL of their growth media. The 3-(4,5-dimethylthiazol-2-yl)-2,5-diphenyltetrazolium bromide (MTT; Sigma Chemical Co.) dye reduction assay in 96-well microplates was used. After 2 days of incubation (37 °C, 5% CO2 in a humid atmosphere), 10 μL of MTT (5 mg/mL in phosphate-buffered saline, PBS) was added to each well, and the plate was incubated for a further 3 h (37 °C). After that, the supernatant was discarded and replaced by 100 µL of DMSO to dissolve formazan crystals. The absorbance was then read at 550 nm by spectro-photometry. For all concentrations of compound, cell viability was expressed as the percentage of the ratio between the mean absorbance of treated cells and the mean absorbance of untreated cells. Three independent experiments were performed, and the IC50 values (i.e., concentration half inhibiting cell proliferation) were graphically determined by using GraphPad Prism 4 software (2019).

[2] = molecular target: T1, membrane VEGFR-2 (mVEGFR-2) (Homo sapiens, UniProt P35968); test: Membrane VEGFR-2 relative quantification by flow cytometry; assay type: cell-based; conditions: for mVEGFR-2 relative detection, A-549 / mVEGFR-2 relative detection, HT-29 / mVEGFR-2 relative detection, MCF-7: 24 h, 100 or 10 μM (Table 7), sorafenib 10 μM, percentage referred to DMSO control; for Inhibition of membrane VEGFR-2, HT-29: with respect to untreated cells
T1 construct: endogenous in cells; host or cells: HT-29, A-549, MCF-7
Protocol: The presence of both targets in the membrane was relatively determined by using DMSO-treated cells as a negative control.
(§1) For the assay, 10^5 cells per well were incubated for 24 h with the corresponding dose of the tested compound in a total volume of 500 μL of their growth media.

total PD-L1 (tPD-L1) = molecular target: T2, total PD-L1 (tPD-L1) (Homo sapiens, UniProt Q9NZQ7); test: Total PD-L1 relative quantification by flow cytometry; assay type: cell-based; conditions: for tPD-L1 relative detection, A-549 / tPD-L1 relative detection, HT-29 / tPD-L1 relative detection, MCF-7: 24 h, 100 or 10 μM (Table 7), relative to DMSO control
T2 construct: endogenous in cells; host or cells: HT-29, A-549, MCF-7
Protocol: (§2) The study was carried out again on HT-29, A-549, and MCF-7 cell lines by flow cytometry after 24 h of treatment with the corresponding compounds. The presence of the targets in the whole cell were relatively determined by using DMSO-treated cells as a negative control and BMS-8 as a positive one for PD-L1 (Table 3).
(§3) To study the effect of the compounds on every biological target in cancer cell lines the compounds were used at a 100 or 10 μM dose, depending on their IC50 and the treated cell line.
as §1
(§4) For the detection of total PD-L1, VEGFR-2, and c-Myc, the procedure was the same as for membrane targets, but after fixation, a treatment with 0,5% in PBS TritonTM X-100 was performed. The antibodies used for PD-L1 and VEGFR-2 were the ones previously described, and for the detection of c-Myc, it was FITC Rabbit monoclonal anti-c-Myc (ab223913).

c-Myc = c-Myc relative quantification by flow cytometry; assay type: cell-based, human; conditions: for c-Myc relative detection, A-549 / c-Myc relative detection, HT-29 / c-Myc relative detection, MCF-7: 24 h, 100 or 10 μM (Table 7), relative to DMSO control
Protocol: as §2, §3, §1, §4

HMEC-1 cells = test: Tube formation on Matrigel (antiangiogenic activity); assay type: cell-based; conditions: 100 μM, 24 h
Protocol: Then we went on to study the effect of these selected compounds on the formation of new capillary networks. Again, HMEC-1 cells were seeded on Matrigel and treated with compounds 21, 22, and 23 at 100 μM. After 24 h of the corresponding treatments, we compared the cultures with non-treated cells, and the results are depicted in Figure 5d–f.
Wells of a IBIDI 15-well μ-plate for angiogenesis were coated with 15 μL of Matrigel® (10 mg/mL, BD Biosciences Europe) at 4 °C. After gelatinization at 37 °C for 30 min, HMEC-1 cells were seeded at 2 × 10^4 cells/well in 25 μL of culture medium on top of the Matrigel and were incubated for 30 min at 37 °C while they were attached.
For the tube-formation assay (study of antiangiogenic activity), 100 μM of compounds was added 20 min after seeding HMEC-1 on Matrigel.

T1 sequence (P35968 20-1356): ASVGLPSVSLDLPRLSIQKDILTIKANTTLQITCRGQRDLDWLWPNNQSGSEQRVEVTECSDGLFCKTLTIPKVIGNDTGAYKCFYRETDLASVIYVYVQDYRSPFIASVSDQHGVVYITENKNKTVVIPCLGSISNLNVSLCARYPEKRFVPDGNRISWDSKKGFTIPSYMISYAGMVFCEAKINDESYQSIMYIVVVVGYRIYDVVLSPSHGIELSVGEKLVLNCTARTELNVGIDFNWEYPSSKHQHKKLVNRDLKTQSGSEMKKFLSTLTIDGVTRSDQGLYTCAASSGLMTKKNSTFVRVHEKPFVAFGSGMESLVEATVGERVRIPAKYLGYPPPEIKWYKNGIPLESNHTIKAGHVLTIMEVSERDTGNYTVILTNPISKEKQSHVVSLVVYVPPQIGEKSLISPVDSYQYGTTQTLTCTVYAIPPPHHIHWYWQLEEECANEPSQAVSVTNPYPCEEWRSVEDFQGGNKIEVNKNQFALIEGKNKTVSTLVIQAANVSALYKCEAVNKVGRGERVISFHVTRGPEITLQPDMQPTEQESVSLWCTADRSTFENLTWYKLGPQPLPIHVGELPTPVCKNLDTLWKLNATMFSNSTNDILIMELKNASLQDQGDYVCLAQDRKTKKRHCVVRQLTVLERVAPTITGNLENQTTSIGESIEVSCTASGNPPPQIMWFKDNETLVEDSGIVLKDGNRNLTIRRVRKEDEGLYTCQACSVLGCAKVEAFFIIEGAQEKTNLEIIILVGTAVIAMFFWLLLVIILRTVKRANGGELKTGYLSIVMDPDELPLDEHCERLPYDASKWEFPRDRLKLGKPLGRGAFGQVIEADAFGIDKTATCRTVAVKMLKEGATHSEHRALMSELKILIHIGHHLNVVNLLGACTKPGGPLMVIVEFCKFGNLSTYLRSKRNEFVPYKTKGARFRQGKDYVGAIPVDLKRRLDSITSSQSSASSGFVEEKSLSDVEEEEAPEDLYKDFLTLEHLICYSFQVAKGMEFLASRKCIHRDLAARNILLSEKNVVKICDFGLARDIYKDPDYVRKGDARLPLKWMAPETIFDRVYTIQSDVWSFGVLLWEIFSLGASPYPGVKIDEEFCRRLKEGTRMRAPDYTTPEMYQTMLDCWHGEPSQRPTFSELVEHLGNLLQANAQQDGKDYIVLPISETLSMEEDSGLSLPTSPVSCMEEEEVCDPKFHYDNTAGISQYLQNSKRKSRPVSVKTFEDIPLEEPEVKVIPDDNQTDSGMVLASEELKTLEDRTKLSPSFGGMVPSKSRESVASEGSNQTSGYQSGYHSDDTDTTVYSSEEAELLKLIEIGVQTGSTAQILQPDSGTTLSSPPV
T2 sequence (Q9NZQ7 19-290): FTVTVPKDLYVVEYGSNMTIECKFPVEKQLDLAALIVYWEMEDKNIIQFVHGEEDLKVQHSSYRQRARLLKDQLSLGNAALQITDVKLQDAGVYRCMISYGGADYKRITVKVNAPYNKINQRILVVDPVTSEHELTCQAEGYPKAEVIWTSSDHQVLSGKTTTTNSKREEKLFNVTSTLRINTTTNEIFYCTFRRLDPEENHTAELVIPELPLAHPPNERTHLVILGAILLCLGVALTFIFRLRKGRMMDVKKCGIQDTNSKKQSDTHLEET

Structure (SMILES) | IC50 [1] [µM] | mVEGFR-2 relative detection, A-549 [2] [%] | mVEGFR-2 relative detection, HT-29 [2] | Inhibition of membrane VEGFR-2, HT-29 [2] [%] | mVEGFR-2 relative detection, MCF-7 [2] [%] | tPD-L1 relative detection, A-549 (total PD-L1 (tPD-L1)) [%] | tPD-L1 relative detection, HT-29 (total PD-L1 (tPD-L1)) [%] | Inhibition of total PD-L1, MCF-7 (total PD-L1 (tPD-L1)) | tPD-L1 relative detection, MCF-7 (total PD-L1 (tPD-L1)) [%] | c-Myc relative detection, A-549 (c-Myc) [%] | c-Myc relative detection, HT-29 (c-Myc; HT-29) [%] | Inhibition of c-Myc, HT-29 (c-Myc; HT-29, compared to non-treated cells) [%] | c-Myc relative detection, MCF-7 (c-Myc) [%] | Antiangiogenic effect on formation of new HMEC-1 capillary networks (HMEC-1 cells) | melting point [°C]
Nc1ccc(-c2cn(Cc3ccc(Cl)cc3)nn2)cc1 [Compound 23, 4-(1-(4-chlorobenzyl)-1H-1,2,3-triazol-4-yl)aniline] | > 100 | >100 | 65% and 65 ± 4% | ~40 | >100 | 81 ± 15 | 52 ± 3 | around 40% | 61 ± 14 | >100 | 84 ± 5 | 20 | 51 ± 8 | interfered with the formation of new microvessel networks | 164 to 166
Nc1ccc(-c2cn(Cc3ccccc3Cl)nn2)cc1 [Compound 21, 4-(1-(2-chlorobenzyl)-1H-1,2,3-triazol-4-yl)aniline] | > 100 | >100 | 92 ± 5% | – | >100 | 78 ± 9 | 60 ± 6 | – | >100 | >100 | >100 | – | 59 ± 6 | interfered with the formation of new microvessel networks | 112 to 115
Nc1ccc(-c2cn(Cc3cccc(Cl)c3)nn2)cc1 [Compound 22, 4-(1-(3-chlorobenzyl)-1H-1,2,3-triazol-4-yl)aniline] | > 100 | >100 | – | ~40 | >100 | 75 ± 10 | 52 ± 7 | around 40% | 69 ± 7 | >100 | >100 | – | 59 ± 5 | interfered with the formation of new microvessel networks | 143 to 144
